In the RepoRT retention time repository (doi:10.1038/s41596-020-0341-5):

Test: RP, Waters ACQUITY UPLC BEH C8, 100 × 2.1 mm, 1.7 µm, 50 °C, 0.35 mL/min, estimated dead time 0.63 min; A: water + 0.1% formic acid; B: acetonitrile + 0.1% formic acid; gradient (min/%B) 0/5 1/5 24/100 28/100
Conditions: stereoisomer not certain

LC retention time	Structure (SMILES)
2.03 min	CC(C)NCC(O)COc1ccc(CC(N)=O)cc1 (stereo not drawn)
1.22 min	CC(=O)Nc1ccc(OC2OC(C(=O)O)C(O)C(O)C2O)cc1 (stereo not drawn)
15.3 min	CCCCCCCCCCCCCCCCCCOCC(O)COP(=O)([O-])OCC[N+](C)(C)C (stereo not drawn)
12.7 min	CCCCC=CCCCCCCCC(=O)OC(CC(=O)O)C[N+](C)(C)C (stereo not drawn)
17.1 min	CCC=CCC=CCC=CCCCCCCCC(=O)O
13.8 min	CCCCCCCCCCCCCCC(=O)OC(CC(=O)O)C[N+](C)(C)C (stereo not drawn)
13.2 min	CCCCCCCCC=CCC=CCCC(=O)OC(CC(=O)O)C[N+](C)(C)C (stereo not drawn)
1.92 min	CC(C)(CO)C(O)C(=O)NCCC(=O)O (stereo not drawn)
10.7 min	C=CC1=C(C)C(C=c2[nH]c(=Cc3[nH]c(C=C4NC(=O)C(C)=C4C=C)c(C)c3CCC(=O)O)c(CCC(=O)O)c2C)=NC1=O
17.9 min	CC(=O)CCC=C(C)CCC=C(C)CCC=C(C)C
4.18 min	NC(Cc1ccccc1)C(=O)N1CCCC1C(=O)O (stereo not drawn)
7.33 min	O=C(O)CCc1c[nH]c2ccccc12
0.817 min	O=C(O)C1CCCCN1 (stereo not drawn)
1.03 min	O=Cc1ccc(O)cc1
8.58 min	CCC=CCC=CCCC(=O)OC(CC(=O)O)C[N+](C)(C)C (stereo not drawn)
18.4 min	CCCCCC=CCC=CCC=CCCCCCCC(=O)O
7.65 min	CCCCC=CCCC(=O)OC(CC(=O)O)C[N+](C)(C)C (stereo not drawn)
17.4 min	CCCCCCC=CCCCCCCCC(=O)O
1 min	Cn1cnc2c(ncn2C2OC(CO)C(O)C2O)c1=N (stereo not drawn)
11.8 min	CCCCC=CCCCCCCC(=O)OC(CC(=O)O)C[N+](C)(C)C (stereo not drawn)
2.47 min	Cc1cnc2ccccc2c1
1.63 min	NC(Cc1ccccc1)C(=O)O (stereo not drawn)
17.1 min	CCCCCCCCCCCCCCCCCCCC(=O)OC(CC(=O)O)C[N+](C)(C)C (stereo not drawn)
6.8 min	CCCC=CCCC(=O)OC(CC(=O)O)C[N+](C)(C)C (stereo not drawn)
9.97 min	CC(CCC(=O)NCC(=O)O)C1CCC2C3C(O)C(O)C4CC(O)CCC4(C)C3CCC12C (stereo not drawn)
3.05 min	CC(C)CC(NC(=O)CCC([NH3+])C(=O)[O-])C(=O)[O-] (stereo not drawn)

LC retention time	Structure (SMILES)
0.783 min	O=CCC(O)C(O)C(O)CO (stereo not drawn)
0.8 min	CCCCCCC(N)C(=O)O (stereo not drawn)
17 min	CCCCCC=CCC=CCCCCCCCC(=O)OCC(O)CO (stereo not drawn)
17.9 min	CCCCCC=CCC=CCC=CCC=CCCCC(=O)O
1.98 min	CC(=O)Nc1ccc(O)cc1
1.6 min	O=C(O)C=Cc1ccccc1
16.3 min	CCCCCCCCC=CCCCCCCCCCC(=O)OC(CC(=O)O)C[N+](C)(C)C (stereo not drawn)
21.8 min	CC(C)CCCC(C)C1CCC2C3CCC4=CC(=O)CCC4(C)C3CCC12C (stereo not drawn)
9.35 min	CCCCCC=CCCC(=O)OC(CC(=O)O)C[N+](C)(C)C (stereo not drawn)
1.53 min	Nc1ccccc1C(=O)CC(N)C(=O)O (stereo not drawn)
13.9 min	O=C(O)C(O)c1ccc(O)c(O)c1 (stereo not drawn)
13.3 min	CCCCCCCCCCCCCC(=O)OC(CC(=O)O)C[N+](C)(C)C (stereo not drawn)
17.8 min	CCC=CCC=CCC=CCC=CCC=CCC=CCCC(=O)O
2.47 min	NC(Cc1c[nH]c2ccccc12)C(=O)O (stereo not drawn)
1.03 min	C1CCNC1
3.23 min	Oc1ccc2[nH]ccc2c1
19.4 min	CC(C)CCCC(C)C1CCC2C3C(=O)C=C4CC(O)CCC4(C)C3CCC12C (stereo not drawn)
18.9 min	CCCCCCC=CCCCCCCCCCC(=O)O
7.7 min	CCn1cc(C(=O)O)c(=O)c2ccc(C)nc21
11.9 min	CCCCC=CC=CCCCCCC(=O)OC(CC(=O)O)C[N+](C)(C)C (stereo not drawn)
13.9 min	CCCCCCCCC=CCCCCCC(=O)OC(CC(=O)O)C[N+](C)(C)C (stereo not drawn)
17.1 min	CC(C)C1=CC2=CCC3C(C)(C(=O)O)CCCC3(C)C2CC1 (stereo not drawn)
2.28 min	CCCC(=O)OC(CC(=O)O)C[N+](C)(C)C (stereo not drawn)
1.03 min	NC(Cc1ccc(O)cc1)C(=O)O (stereo not drawn)
5.35 min	NC(Cc1ccccc1)C(=O)NC(Cc1ccccc1)C(=O)O (stereo not drawn)

The next lines start with the compound.

Structure (SMILES)	LC retention time
CCCCCCCCOC(=O)c1ccccc1C(=O)OCCCCCCCC	21.4 min
CCCCCC=CCC=CCC=CCCCCCCC(=O)OCC(COP(=O)([O-])OCC[N+](C)(C)C)OC(=O)CCCCCCCCCCCCC (stereo not drawn)	20.2 min
Cn1c(=O)[nH]c2ncn(C)c2c1=O	2.28 min
CCCCCCCCCCCCCCCCCCCCCC(=O)OC(CC(=O)O)C[N+](C)(C)C (stereo not drawn)	18.1 min
Nc1nc2ccc(C(=O)c3ccccc3)cc2[nH]1	5.28 min
CC12CCC(=O)C=C1CCC1C2C(O)CC2(C)C1CCC2(O)C(=O)CO (stereo not drawn)	7.77 min
CCC=CCC=CCC=CCC=CCC=CCCCC(=O)O	18.1 min
CSCCC(N)C(=O)O (stereo not drawn)	1.02 min
CCCCCCCCC=CCCCCCCCC(=O)NCCO	16.9 min
CC(C)CC(NC(=O)C1CCCN1)C(=O)O (stereo not drawn)	1.12 min
CCCCCCCCC=CCCCCCCCCCCCC(N)=O	18.8 min
O=c1[nH]cnc2nc[nH]c12	1.02 min
CCCCCCCCCCCCCCCC(O)C(N)CO (stereo not drawn)	12.6 min
CCCCCCCCC=CCCCCCCCCCC(=O)O	20.1 min
CCCCCCCCCCCCCCCC(=O)NCCO	16.3 min
CCCCCCCCCCCCCC=CC(O)C(N)COP(=O)(O)O (stereo not drawn)	13 min
NCCc1c[nH]c2ccc(O)cc12	1.02 min
CCCCCCCCCCCCCCCCCCCCCCCCCC(=O)OC(CC(=O)O)C[N+](C)(C)C (stereo not drawn)	19.8 min
CCCCCCCCCCCCCCC=CCCCCCCCCCC(=O)OC(CC(=O)O)C[N+](C)(C)C (stereo not drawn)	19.1 min
CCCCCCCCC=CCCCCCCCC(N)=O	17.4 min
NC(=O)CCC(NC(=O)Cc1ccccc1)C(=O)O (stereo not drawn)	3.67 min
CC(CCC(=O)O)C1CCC2C3CCC4CC(O)CCC4(C)C3CC(O)C12C (stereo not drawn)	13.3 min
CCCCCCCCCCCCCCCCCCC(=O)OCC(O)COP(=O)([O-])OCC[N+](C)(C)C (stereo not drawn)	16.8 min
Cc1cc2nc3c(=O)[nH]c(=O)nc-3n(CC(O)C(O)C(O)CO)c2cc1C (stereo not drawn)	3.85 min

Structure (SMILES)	LC retention time
CCCCCCCCCCCCCCCC(=O)O	18.4 min
CCCCCCC=CCCCCCCCCCCOCC(O)COP(=O)([O-])OCC[N+](C)(C)C (stereo not drawn)	14.4 min
O=C(O)C1CCCN1 (stereo not drawn)	0.9 min
CCCCCCCCC(=O)OC(CC(=O)O)C[N+](C)(C)C (stereo not drawn)	8.62 min
CCCCCCCCCCCCCCCC(N)=O	16.9 min
CCCCCCCCCCCCCCCC(=O)OCC(O)COP(=O)([O-])OCC[N+](C)(C)C (stereo not drawn)	14.3 min
O=C(O)c1ccccc1O	4.47 min
CCCCCCCCCCCCCCCCCC(N)=O	18.4 min
NN1CCOC1=O	1.6 min
CC(C)CCCCCOC(=O)c1ccccc1C(=O)OCCCCCC(C)C	20.8 min
CCCCC(=O)OC(CC(=O)O)C[N+](C)(C)C (stereo not drawn)	3.7 min
CCCCCC=CCC=CCC=CCCCCCCC(=O)OCC(O)COP(=O)([O-])OCC[N+](C)(C)C (stereo not drawn)	15.9 min
Cn1cccc1-c1cccnc1	2.47 min
CCCCCCCCCCCCCCCCCCCCCCCC(=O)OC(CC(=O)O)C[N+](C)(C)C (stereo not drawn)	19 min
CCCCCC=CC=CCCCCCCCCC(=O)OC(CC(=O)O)C[N+](C)(C)C (stereo not drawn)	14.4 min
O=C(CO)CO	1.6 min
CCCCCCC=CCCCC(=O)OC(CC(=O)O)C[N+](C)(C)C (stereo not drawn)	11.4 min
O=C(O)C(O)Cc1c[nH]c2ccccc12 (stereo not drawn)	5.17 min
CCCCCCC=CCCCCCCCCCC(=O)OC(CC(=O)O)C[N+](C)(C)C (stereo not drawn)	15.2 min
CC(CCC(=O)NCC(=O)O)C1CCC2C3CCC4CC(O)CCC4(C)C3CC(O)C12C (stereo not drawn)	11.8 min
CCCCOC(=O)c1ccccc1C(=O)OCCCC	15.7 min
CCC=CCC=CCC=CCC=CCC=CCCCC(=O)OCC(COP(=O)([O-])OCC[N+](C)(C)C)OC(=O)CCCC=CCC=CCC=CCCCCCCCC (stereo not drawn)	22 min
C[N+](C)(C)CC(O)CC(=O)[O-] (stereo not drawn)	0.767 min
